# Assay results: patent publication US20150282486A1, “RICE SEED TREATMENT COMPOSITION” (SYNGENTA PARTICIPATIONS AG, priority 2014, published 2015)
# Tests used:
# rice seed = settings: 1.4 g ZnEDTA/kg rice seed; cited from earlier work
# rice seed variety CL 151 [1] = experiment: Greenhouse trial of zinc-treated rice seed in Zn deficient soil mix: germination rate; format: in vivo; settings: plus insecticide/fungicide mixture, Zn deficient potting mix 1.97 ppm Zn
# Source text: (§1) For the inventive composition, ZnEDTA (in the form of Dissolvine E-Zn-15 having 3% free zinc, Akzo Nobel, IL., USA) was applied as a 20% w/w aqueous solution at rates of 1.18 1.47 and 1.76 g ZnEDTA/kg seed. This was accomplished by using 8, 10 or 12 fl oz per cwt.
# (§2) For the first comparative composition, ZnSO4 was applied as a 24.7% solution at a rate of 1.90 g ZnSO4/kg seed (in the form of ZINC PLUS having 10% free zinc, DeltAg, MS, USA). This was accomplished by using 10 fl oz per cwt.
# (§3) For the second comparative composition, ZnO was applied as a 32.50% aqueous suspension at a rate of 2.00 g ZnO/kg seed (in the form of ZINCHE ST having 26% free zinc, Drexel Chemical Co, TN, USA). This was accomplished by using 8 fl oz per cwt.
# (§4) This was done by preparing a mixture of each zinc-containing compound with the insecticide/fungicide mixture and adding water to make a total of 25 fl oz per ctw (thiamethoxam at 1.80 g/kg seed, fludioxonil at 0.015 g/kg seed, azoxystrobin at 0.07 g/kg seed, metalaxyl-M at 0.09 g/kg seed and sedaxane at 0.01 g/kg seed; commercial products available as e.g. CRUISER MAXX and VIBRANCE, both Syngenta Crop Protection, NC, USA). Also evaluated were untreated control and seeds having only the conventional insecticide and fungicide treatment.
# (§5) For all test groups, one (1) kg batches of rice seed variety CL 151 (Clearfield Seed, Horizon Ag, TN, USA) were treated on a Hege seed treater (Wintersteiger AG, Austria) using a standard protocol. The seeds were allowed to dry.
# Standard commercial greenhouse containers, 10 cm diameter by 9 cm deep, were filled with 350 cc of a rooting media mix consisting of 33% (v/v) Zn deficient soil collected in Arkansas, USA and then sterilized in an autoclave and 66% (v/v) commercial planting mix (NB peat, Fafard, MA, USA). Analysis of the potting mix confirmed that the zinc levels were low, at 1.97 ppm and pH levels were <7. […]
# Ten days after planting (10 DAP) a drip irrigation emitter was installed on each pot. […] Germination rates were recorded and at 11 DAP rice seedlings were thinned to 5 plants per pot. […]
# rice seed variety CL 151 [2] = experiment: Greenhouse trial of zinc-treated rice seed in Zn deficient soil mix: total zinc uptake in dry above ground plant tissue; format: in vivo; settings: dry above ground tissue harvested 29 DAP, plus insecticide/fungicide mixture
# Source text: as §1, §2, §3, §4, §5
# Standard commercial greenhouse containers, 10 cm diameter by 9 cm deep, were filled with 350 cc of a rooting media mix consisting of 33% (v/v) Zn deficient soil collected in Arkansas, USA and then sterilized in an autoclave and 66% (v/v) commercial planting mix (NB peat, Fafard, MA, USA). Analysis of the potting mix confirmed that the zinc levels were low, at 1.97 ppm and pH levels were <7.
# Prior to planting the soil was moistened with 200 ml tap water per pot. Eight seeds were sown per pot by placing them on soil surface then lightly covering with 0.5 cm of loose peat. […] Pots were transferred to greenhouse and maintained at 30/24° C. day/night temperature with 16 hours of supplemental high pressure sodium light. All pots were lightly watered manually every 2 to 3 days to prevent dehydration of the germination zone.
# Ten days after planting (10 DAP) a drip irrigation emitter was installed on each pot. The irrigation system was set to deliver 100 ml of tap water each morning and again each evening. Germination rates were recorded and at 11 DAP rice seedlings were thinned to 5 plants per pot. By 17 DAP rice plants were in the V3 growth stage. At 18 DAP nitrogen fertilizer (urea) was added to the irrigation water at 200 ppm for the duration of trial. At 22 DAP rice plants were in the V4 growth stage with first tiller forming.
# At 29 DAP rice plants were in the V5 growth stage with 3 tillers. The above ground plant tissue was harvested and placed in paper bags. Bags were placed in an oven set at 100° C. for 72 hours to dry. The dry tissue was removed from the bags and weighed. Samples of the dry tissue were analyzed for total zinc uptake (MicroMacro International, Inc. Labs, GA, USA).
smiles,measurement,setting,value
"O=C(O)CN(CCN(CC(=O)O)CC(=O)O)CC(=O)O.[Zn] [ZnEDTA, zinc ethylenediaminetetraacetic acid]",Outcome of rice seed treatment,rice seed,not successful
same,Germination rate (%),rice seed variety CL 151 [1]; 1.47 g Zn complex/kg seed,45%
same,Zinc uptake (ppm),rice seed variety CL 151 [2]; 1.18 g Zn complex/kg seed,275.47 ppm
same,Zinc uptake (ppm),rice seed variety CL 151 [2]; 1.47 g Zn complex/kg seed,304.74 ppm
same,Zinc uptake (ppm),rice seed variety CL 151 [2]; 1.76 g Zn complex/kg seed,316.00 ppm
"[O]=[Zn] [ZnO, Zinc oxide, reference compound]",Germination rate (%),rice seed variety CL 151 [1]; 2.00 g Zn complex/kg seed,42%
same,Zinc uptake (ppm),rice seed variety CL 151 [2]; 2.00 g Zn complex/kg seed,253.65 ppm
"O=S(=O)([O-])[O-].[Zn+2] [ZnSO4, Zinc sulfate, reference compound]",Germination rate (%),rice seed variety CL 151 [1]; 1.90 g Zn complex/kg seed,43%
same,Zinc uptake (ppm),rice seed variety CL 151 [2]; 1.90 g Zn complex/kg seed,237.50 ppm
